The values below come from ChEMBL document CHEMBL1150976, “The selectivity of protein kinase inhibitors: a further update” (Biochem J, 2007).

In experiment [1] the target is T1, Serine/threonine-protein kinase BRSK2 (Homo sapiens) (UniProt Q8IWQ3).
T1 sequence (whole entry): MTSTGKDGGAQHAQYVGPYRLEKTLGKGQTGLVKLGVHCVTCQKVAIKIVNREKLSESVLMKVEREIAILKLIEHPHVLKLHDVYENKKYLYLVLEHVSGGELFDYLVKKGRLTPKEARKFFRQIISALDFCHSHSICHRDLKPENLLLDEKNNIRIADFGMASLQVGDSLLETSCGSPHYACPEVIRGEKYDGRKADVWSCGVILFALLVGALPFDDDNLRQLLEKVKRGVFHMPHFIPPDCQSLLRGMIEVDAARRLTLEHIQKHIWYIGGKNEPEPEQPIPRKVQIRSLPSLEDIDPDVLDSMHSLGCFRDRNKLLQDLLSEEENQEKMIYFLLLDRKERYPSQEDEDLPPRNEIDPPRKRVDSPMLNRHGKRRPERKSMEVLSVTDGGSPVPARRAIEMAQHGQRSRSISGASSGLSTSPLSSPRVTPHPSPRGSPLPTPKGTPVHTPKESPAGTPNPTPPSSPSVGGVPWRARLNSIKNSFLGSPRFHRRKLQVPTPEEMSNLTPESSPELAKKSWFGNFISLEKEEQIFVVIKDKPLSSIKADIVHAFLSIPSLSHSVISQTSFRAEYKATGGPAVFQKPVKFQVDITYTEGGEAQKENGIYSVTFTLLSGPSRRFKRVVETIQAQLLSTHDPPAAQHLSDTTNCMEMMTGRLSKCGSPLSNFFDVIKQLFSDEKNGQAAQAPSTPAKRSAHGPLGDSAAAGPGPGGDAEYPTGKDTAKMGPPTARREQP
The experiment in a line: Percentage BRSK2 activity remaining in the presence of 0.1uM inhibitor.

Experiment [2] concerns the target Ribosomal protein S6 kinase alpha-5 (Homo sapiens) (UniProt O75582). The experiment in a line: Percentage MSK1 activity remaining in the presence of 0.1uM inhibitor.
The target of experiment [3] is MAP kinase-activated protein kinase 2 (Homo sapiens) (UniProt P49137). The experiment in a line: Percentage MAPKAPK2 activity remaining in the presence of 0.01uM inhibitor.
Chain of MAP kinase-activated protein kinase 2 (Homo sapiens) (P49137 whole entry, looked up): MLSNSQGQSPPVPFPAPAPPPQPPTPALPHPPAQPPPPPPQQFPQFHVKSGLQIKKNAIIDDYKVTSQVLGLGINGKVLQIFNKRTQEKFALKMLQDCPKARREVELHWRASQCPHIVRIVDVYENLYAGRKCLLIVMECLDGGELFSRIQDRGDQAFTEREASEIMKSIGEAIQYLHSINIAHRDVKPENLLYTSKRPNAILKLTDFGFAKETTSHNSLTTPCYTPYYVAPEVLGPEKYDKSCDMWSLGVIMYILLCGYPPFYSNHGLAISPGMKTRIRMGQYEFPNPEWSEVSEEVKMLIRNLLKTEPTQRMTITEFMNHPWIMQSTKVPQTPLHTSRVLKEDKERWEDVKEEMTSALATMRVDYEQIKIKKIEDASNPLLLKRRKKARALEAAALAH
The target of experiment [4] is Calcium/calmodulin-dependent protein kinase type 1 (Homo sapiens) (UniProt Q14012). The experiment in a line: Percentage CaMK1 activity remaining in the presence of 0.01uM inhibitor.
Chain of Calcium/calmodulin-dependent protein kinase type 1 (Homo sapiens) (Q14012 whole entry, looked up): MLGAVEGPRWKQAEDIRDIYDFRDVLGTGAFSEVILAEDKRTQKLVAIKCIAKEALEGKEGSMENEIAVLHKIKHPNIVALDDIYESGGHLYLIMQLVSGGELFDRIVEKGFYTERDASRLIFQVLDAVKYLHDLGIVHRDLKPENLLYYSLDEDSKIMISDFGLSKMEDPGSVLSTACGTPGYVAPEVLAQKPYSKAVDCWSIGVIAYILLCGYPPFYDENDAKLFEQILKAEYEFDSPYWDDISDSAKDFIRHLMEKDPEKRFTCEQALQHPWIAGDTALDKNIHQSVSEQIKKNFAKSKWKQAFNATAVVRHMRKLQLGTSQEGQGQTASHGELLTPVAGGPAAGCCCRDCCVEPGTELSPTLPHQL
In experiment [5] the target is T2, Serine/threonine-protein kinase Chk1 (Homo sapiens) (UniProt O14757).
T2 sequence (whole entry): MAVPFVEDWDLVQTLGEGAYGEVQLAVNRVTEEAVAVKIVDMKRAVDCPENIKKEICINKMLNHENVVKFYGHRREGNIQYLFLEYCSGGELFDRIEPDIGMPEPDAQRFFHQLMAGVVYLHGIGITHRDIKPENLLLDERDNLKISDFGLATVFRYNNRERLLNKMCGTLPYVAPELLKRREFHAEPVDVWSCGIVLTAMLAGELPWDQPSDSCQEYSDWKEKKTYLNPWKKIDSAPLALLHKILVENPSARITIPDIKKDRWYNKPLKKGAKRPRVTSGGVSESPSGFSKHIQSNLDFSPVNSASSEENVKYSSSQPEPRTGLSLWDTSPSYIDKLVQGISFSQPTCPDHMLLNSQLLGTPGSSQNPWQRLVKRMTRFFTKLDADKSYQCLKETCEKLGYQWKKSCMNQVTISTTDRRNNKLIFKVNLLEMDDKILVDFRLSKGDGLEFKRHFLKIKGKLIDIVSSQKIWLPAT
The experiment in a line: Percentage CHK1 activity remaining in the presence of 0.01uM inhibitor.

The target of experiment [6] is Dual specificity tyrosine-phosphorylation-regulated kinase 1A (Homo sapiens) (UniProt Q13627). The experiment in a line: Percentage DYRK1A activity remaining in the presence of 0.01uM inhibitor.
Experiment [7] addresses Homeodomain-interacting protein kinase 2 (Homo sapiens) (UniProt Q9H2X6). Briefly: Percentage HIPK2 activity remaining in the presence of 0.01uM inhibitor.
The target in experiment [8] is MAP kinase-activated protein kinase 3 (Homo sapiens) (UniProt Q16644). Briefly: Percentage MAPKAPK3 activity remaining in the presence of 0.01uM inhibitor.
Chain of MAP kinase-activated protein kinase 3 (Homo sapiens) (Q16644 whole entry, looked up): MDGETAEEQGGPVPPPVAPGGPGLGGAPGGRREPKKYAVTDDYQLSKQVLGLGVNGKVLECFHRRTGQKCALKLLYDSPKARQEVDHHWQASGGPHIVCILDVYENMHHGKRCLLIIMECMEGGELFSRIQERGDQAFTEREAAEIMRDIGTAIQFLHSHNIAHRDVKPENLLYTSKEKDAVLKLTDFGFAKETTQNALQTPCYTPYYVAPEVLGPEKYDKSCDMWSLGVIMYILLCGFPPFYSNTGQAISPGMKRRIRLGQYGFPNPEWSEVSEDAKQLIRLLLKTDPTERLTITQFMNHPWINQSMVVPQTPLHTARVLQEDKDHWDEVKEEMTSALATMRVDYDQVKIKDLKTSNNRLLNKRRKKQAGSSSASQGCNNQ
Experiment [9] addresses Protein kinase C alpha type (Homo sapiens) (UniProt P17252). Briefly: Percentage PKCalpha activity remaining in the presence of 0.01uM inhibitor.
Experiment [10] has as its target Dual specificity mitogen-activated protein kinase kinase 1 (Homo sapiens) (UniProt Q02750). Briefly: Percentage MKK1 activity remaining in the presence of 0.01uM inhibitor.
Experiment [11] concerns the target Serine/threonine-protein kinase pim-2 (Homo sapiens, UniProt Q9P1W9). Briefly: Percentage PIM2 activity remaining in the presence of 0.01uM inhibitor.
Experiment [12] deals with T3, Aurora kinase C (Homo sapiens) (UniProt Q9UQB9).
T3 sequence (whole entry): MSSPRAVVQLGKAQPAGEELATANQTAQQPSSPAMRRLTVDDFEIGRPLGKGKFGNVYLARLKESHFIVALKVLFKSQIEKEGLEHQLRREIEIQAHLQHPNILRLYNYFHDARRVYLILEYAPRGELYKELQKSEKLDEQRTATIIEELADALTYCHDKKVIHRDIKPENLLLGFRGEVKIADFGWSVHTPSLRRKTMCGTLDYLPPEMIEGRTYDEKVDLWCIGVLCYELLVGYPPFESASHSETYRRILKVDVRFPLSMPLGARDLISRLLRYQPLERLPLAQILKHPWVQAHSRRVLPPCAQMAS
The experiment in a line: Percentage Aurora C activity remaining in the presence of 0.01uM inhibitor.

The next experiment deals with Aurora kinase B (Homo sapiens, UniProt Q96GD4). The experiment in a line: Percentage Aurora B activity remaining in the presence of 0.01uM inhibitor.
Chain of Aurora kinase B (Q96GD4 whole entry): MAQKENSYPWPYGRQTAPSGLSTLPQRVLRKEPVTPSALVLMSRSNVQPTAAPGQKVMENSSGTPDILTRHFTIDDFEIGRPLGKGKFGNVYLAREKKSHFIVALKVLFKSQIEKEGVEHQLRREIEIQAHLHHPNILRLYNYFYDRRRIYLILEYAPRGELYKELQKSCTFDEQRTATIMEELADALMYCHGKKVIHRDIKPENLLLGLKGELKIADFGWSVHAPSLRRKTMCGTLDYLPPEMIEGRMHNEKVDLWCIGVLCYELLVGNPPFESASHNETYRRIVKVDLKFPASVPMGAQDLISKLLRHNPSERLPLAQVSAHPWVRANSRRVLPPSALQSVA
Experiment [13] concerns the target Homeodomain-interacting protein kinase 3 (Homo sapiens) (UniProt Q9H422). Briefly: Percentage HIPK3 activity remaining in the presence of 0.01uM inhibitor.
Experiment [14] addresses Serine/threonine-protein kinase pim-1 (Homo sapiens, UniProt P11309). The experiment in a line: Percentage PIM1 activity remaining in the presence of 0.01uM inhibitor.

Chain of Homeodomain-interacting protein kinase 3 (Homo sapiens) (Q9H422 whole entry, looked up): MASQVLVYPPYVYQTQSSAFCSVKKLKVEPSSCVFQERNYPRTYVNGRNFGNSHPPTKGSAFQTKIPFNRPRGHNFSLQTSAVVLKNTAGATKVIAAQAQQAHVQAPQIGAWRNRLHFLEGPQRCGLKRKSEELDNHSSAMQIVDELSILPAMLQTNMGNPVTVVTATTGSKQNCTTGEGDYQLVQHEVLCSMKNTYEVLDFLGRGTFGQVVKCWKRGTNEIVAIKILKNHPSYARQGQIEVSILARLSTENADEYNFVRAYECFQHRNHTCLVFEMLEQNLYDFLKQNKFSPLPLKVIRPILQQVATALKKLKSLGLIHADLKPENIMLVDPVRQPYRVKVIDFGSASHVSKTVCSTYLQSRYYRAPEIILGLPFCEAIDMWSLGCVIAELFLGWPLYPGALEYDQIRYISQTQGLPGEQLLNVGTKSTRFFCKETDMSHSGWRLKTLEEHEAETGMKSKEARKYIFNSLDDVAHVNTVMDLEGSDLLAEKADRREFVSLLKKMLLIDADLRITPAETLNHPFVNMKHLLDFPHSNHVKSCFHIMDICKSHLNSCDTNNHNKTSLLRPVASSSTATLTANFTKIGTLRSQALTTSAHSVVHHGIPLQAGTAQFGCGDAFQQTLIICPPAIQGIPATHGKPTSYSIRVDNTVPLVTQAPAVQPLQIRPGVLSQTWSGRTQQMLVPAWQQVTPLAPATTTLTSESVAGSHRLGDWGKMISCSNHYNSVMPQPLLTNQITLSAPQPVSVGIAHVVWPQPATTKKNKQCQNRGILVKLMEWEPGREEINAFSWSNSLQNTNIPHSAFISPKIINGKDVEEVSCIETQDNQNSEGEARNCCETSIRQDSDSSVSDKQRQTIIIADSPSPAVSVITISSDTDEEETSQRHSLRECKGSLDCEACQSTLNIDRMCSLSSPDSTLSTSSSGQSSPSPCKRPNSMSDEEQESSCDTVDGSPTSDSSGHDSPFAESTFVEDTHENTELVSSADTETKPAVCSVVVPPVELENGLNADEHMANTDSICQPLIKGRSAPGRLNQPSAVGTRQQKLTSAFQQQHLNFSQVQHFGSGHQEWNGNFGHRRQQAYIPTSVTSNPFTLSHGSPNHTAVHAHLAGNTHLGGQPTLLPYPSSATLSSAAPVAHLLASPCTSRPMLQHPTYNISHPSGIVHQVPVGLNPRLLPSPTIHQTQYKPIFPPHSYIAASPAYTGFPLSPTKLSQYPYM
Chain of Serine/threonine-protein kinase pim-1 (P11309 whole entry, looked up): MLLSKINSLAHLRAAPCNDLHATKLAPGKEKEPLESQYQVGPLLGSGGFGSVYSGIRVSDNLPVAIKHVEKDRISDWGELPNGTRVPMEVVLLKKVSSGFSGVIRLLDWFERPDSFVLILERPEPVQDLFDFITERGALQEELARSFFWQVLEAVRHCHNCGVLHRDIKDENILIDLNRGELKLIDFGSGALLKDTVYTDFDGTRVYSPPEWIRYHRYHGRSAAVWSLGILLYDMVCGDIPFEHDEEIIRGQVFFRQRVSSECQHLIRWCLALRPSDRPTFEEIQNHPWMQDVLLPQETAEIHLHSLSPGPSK
Chain of Ribosomal protein S6 kinase alpha-5 (Homo sapiens) (O75582 whole entry, looked up): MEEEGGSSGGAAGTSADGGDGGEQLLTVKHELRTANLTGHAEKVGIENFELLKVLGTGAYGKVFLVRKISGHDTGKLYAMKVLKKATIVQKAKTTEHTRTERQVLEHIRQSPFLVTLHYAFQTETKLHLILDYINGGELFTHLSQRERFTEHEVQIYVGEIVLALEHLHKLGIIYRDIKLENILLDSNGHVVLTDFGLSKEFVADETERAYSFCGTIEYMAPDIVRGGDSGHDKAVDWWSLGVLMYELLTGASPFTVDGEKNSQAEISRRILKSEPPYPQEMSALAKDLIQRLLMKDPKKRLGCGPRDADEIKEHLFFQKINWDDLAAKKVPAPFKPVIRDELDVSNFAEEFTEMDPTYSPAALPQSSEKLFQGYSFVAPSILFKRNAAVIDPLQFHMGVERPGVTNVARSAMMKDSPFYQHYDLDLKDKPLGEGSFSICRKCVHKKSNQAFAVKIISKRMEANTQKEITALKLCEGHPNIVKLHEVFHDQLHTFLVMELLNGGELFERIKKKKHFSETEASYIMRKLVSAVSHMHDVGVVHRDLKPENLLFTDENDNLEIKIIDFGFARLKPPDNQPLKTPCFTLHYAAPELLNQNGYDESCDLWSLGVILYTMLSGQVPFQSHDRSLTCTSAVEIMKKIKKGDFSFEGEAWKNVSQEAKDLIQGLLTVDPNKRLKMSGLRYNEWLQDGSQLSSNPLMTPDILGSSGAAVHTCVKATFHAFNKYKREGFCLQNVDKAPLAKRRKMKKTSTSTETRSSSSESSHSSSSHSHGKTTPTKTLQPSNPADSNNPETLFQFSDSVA
Chain of Dual specificity mitogen-activated protein kinase kinase 1 (Homo sapiens) (Q02750 whole entry): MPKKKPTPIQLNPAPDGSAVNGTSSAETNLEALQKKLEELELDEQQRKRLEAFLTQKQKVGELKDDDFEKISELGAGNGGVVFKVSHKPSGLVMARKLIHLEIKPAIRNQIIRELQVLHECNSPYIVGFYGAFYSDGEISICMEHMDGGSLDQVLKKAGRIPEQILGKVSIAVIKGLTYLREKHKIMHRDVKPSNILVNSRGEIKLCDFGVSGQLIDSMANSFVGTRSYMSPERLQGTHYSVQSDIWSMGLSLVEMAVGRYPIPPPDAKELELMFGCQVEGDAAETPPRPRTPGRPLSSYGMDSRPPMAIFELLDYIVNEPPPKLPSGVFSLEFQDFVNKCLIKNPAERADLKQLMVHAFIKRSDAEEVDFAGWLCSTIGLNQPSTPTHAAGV

With `CC(C)[C@H](CO)Nc1nc(Nc2cccc(Cl)c2)c2ncn(C(C)C)c2n1` [PURVALANOLA], the Activity was 76% in experiment [1] and 89% in experiment [2].

On to `Cn1cc(C2=C(c3cn(CCCSC(=N)N)c4ccccc34)C(=O)NC2=O)c2ccccc21`, for which the values for the Activity in [1] and in [2] (filed as antagonist) were 65% and 11%, respectively.

As for `O=C(NCCCNc1nc(Nc2cccc(NC(=O)N3CCCC3)c2)ncc1I)c1cccs1`, the Activity turned out to be 108% in experiment [3]; 86% in experiment [4]; 84% in experiment [5]; 94% in experiment [6]; 95% in experiment [7]; 103% in experiment [8]. In addition, the Activity in experiment [9] was 105%; in [1] (filed as antagonist) it was 45%; in experiment [10], 50%; in [11], 108%; in experiment [12] (filed as antagonist) it was 27%; on Aurora kinase B (filed as antagonist), 17%. The Activity stood at 84% in [2], 95% in [13] and 103% in experiment [14].

Take `Cn1c2ccccc2c2c3c(c4c5ccccc5n(CCC#N)c4c21)CNC3=O`: the Activity in experiment [1] (filed as antagonist) is 46%; in experiment [2] (filed as antagonist), 6%.

Regarding `CN(C)C[C@@H]1CCn2cc(c3ccccc32)C2=C(C(=O)NC2=O)c2cn(c3ccccc23)CCO1`, in experiment [2] (filed as antagonist), the Activity was 44%.

For the molecule `CN[C@@H]1C[C@H]2O[C@@](C)([C@@H]1OC)n1c3ccccc3c3c4c(c5c6ccccc6n2c5c31)C(=O)N[C@H]4O` (stereo in doubt), the Activity in experiment [3] was 75%; in experiment [4], 86%; in experiment [5] (filed as antagonist), 12%; in [6] it was 90%; in [7], 109%; in experiment [8] it was 107%. Also, the Activity in experiment [9] (filed as antagonist) was 6%; in experiment [10], 75%; in [11], 73%; in experiment [12], 71%; on Aurora kinase B, 59%; in experiment [13], 116%. Also, the Activity in [14] was 52%.

In the case of `CC(C)CCN1c2nc(Nc3cc(F)c(O)c(F)c3)ncc2N(C)C(=O)C1C` (configuration not stated), the values for the Activity in experiment [1] and in [2] were 78% and 125%, respectively.

In the case of `Cc1n[nH]c2ccc(-c3cncc(OC[C@@H](N)Cc4c[nH]c5ccccc45)c3)cc12`, the Activity is 92% in experiment [3]; 89% in [4]; 100% in experiment [5]; 10% in experiment [6] (filed as antagonist); 73% in experiment [7]; 91% in experiment [8]. Also, the Activity in [9] is 73%; in [1], 79%; in experiment [10], 84%; in [11] it was 59%; in [12], 100%; at Aurora kinase B it was 81%. In addition, the Activity is 9% in experiment [2] (filed as antagonist), 90% in experiment [13] and 57% in experiment [14].
